Drawing on patent publication US7807845B2, “Resistance-repellent retroviral protease inhibitors” (priority 2004, dated 2010), this text covers Ki and IC50 for 4 molecules.

One may read the Ki as a dissociation constant, usually derived from enzyme kinetics or from competition with a known ligand. What is called IC50 is the concentration needed to halve the response being measured.

In one experiment the target is T1, wild type HIV PR (Human immunodeficiency virus type 1 group M subtype B, UniProt P04585).
T1 construct: Recombinant wild type and mutant HIV PRs were expressed using pET21 vector (Novagen) in E. coli cells; made in house
The experiment can be described thus: HIV PR inhibition assay, wild type. Format: biochemical. How it is done:
(§1) Expression and purification of WT and mutant HIV PR. Recombinant wild type and mutant HIV PRs were expressed using pET21 vector (Novagen) in E. coli cells, and purified and refolded as described previously (Gulnik et al, 1995). The cells were resuspended in 50 mM tris-HCl buffer, pH 8.0, 25 mM NaCl, 0.2% β-mercaptoethanol (buffer A), sonicated and centrifuged. Inclusion bodies were washed first with buffer A, then with buffer A containing respectively 0.1% Triton X-100, 1 M NaCl, 1 M urea, and finally with buffer A alone. Purified inclusion bodies were solubilized by addition of buffer A containing 8 M urea at room temperature. The solution was clarified by centrifugation and loaded onto 2.6×9.5 cm Q-Sepharose column. Flow-through fractions were collected and dialyzed against 3 changes of refolding buffer, which consists of 25 mM Na-phosphate, pH 7.0, 25 mM NaCl, 0.2% β-mercaptoethanol and 10% glycerol, aliquoted and stored at −80° C.
(§2) Inhibition constants were determined using the fluorogenic substrate ArgGlu(EDANS)[…]DABCYL)Arg (Amichem, USA). HIV Protease was preincubated for 0.5-1 min at ambient temperature on a 96 well plate with different concentrations of inhibitor in 0.05 M sodium phosphate buffer, pH 6.5, containing 20 mM NaCl, 2 mM DTT and 0.01% Tween-20. The reaction was initiated by the addition of substrate. Final enzyme concentration was 2-5 nM for WT and 2-30 nM for mutants. Substrate concentration was 20 uM and DMSO concentration 2%. The increase in fluorescence intensity at the emission maximum of 520 nm (excitation wavelength 340 nm, cut-off filter 495 nm) was monitored as a function of time using a Spectramax Gemini fluorescence plate reader (Molecular Devices, CA USA). The initial rate of hydrolysis was calculated by first-degree polynomial fit using SoftMAX operating software. Data were fitted to the Michaelis-Menten equation for competitive inhibitors. For tight-binding inhibitors the data were fitted by nonlinear regression analysis to the equation V=V0/2Et({[Ki(1+S/Km)+It−Et]^2+4Ki(1+S/Km)Et}^1/2−[Ki(1+S/Km)+It−Et]) (Williams and Morrison, 1979) with the program GraFit, version 5 (Erithacus Software Limited, UK), where V and V0 are initial velocities with and without inhibitor, Km is the Michaelis-Menten constant and S, Et and It are the concentrations of substrate, active enzyme and inhibitor respectively.

Another experiment has as its target mutant HIV PR (Mutant 8) (Human immunodeficiency virus type 1 group M subtype B, UniProt P04585). The experiment can be described thus: HIV PR inhibition assay, Mutant 8. Format: biochemical. The settings on record: read-out: Ki Mutant 8; recombinant mutant HIV PR, fluorogenic substrate, pH 6.5. How it is done:
as §1, §2

In another experiment the target is mutant HIV PR (Mutant 9) (Human immunodeficiency virus type 1 group M subtype B, UniProt P04585). In words: HIV PR inhibition assay, Mutant 9. Format: biochemical. The settings on record: read-out: Ki Mutant 9; recombinant mutant HIV PR, fluorogenic substrate, pH 6.5. On the procedure: as §1, §2
For experiment [1], the target named is mutant HIV PR (Mutant 10) (Human immunodeficiency virus type 1 group M subtype B, UniProt P04585). The experiment can be described thus: HIV PR inhibition assay, Mutant 10. Format: biochemical. Particulars: read-out: Ki Mutant 10; recombinant mutant HIV PR, fluorogenic substrate, pH 6.5. How it is done:
as §1, §2

The subject of the next experiment is WT=HIVHXB2. The experiment can be described thus: Antiviral assay in MT-4 cells (MTT), WT virus. Format: cell-based, HIV. The settings on record: Human immunodeficiency virus 1, MT4, 120 h, HIVHXB2, 5 days. How it is done: (§3) MT-4 cells were obtained from the AIDS Research and Reference Reagent Program (ARRRP, Division of AIDS, NIAID, NIH: MT-4 from Dr. D. Richman). Cells were propagated in RPMI 1640 supplemented with 10% fetal bovine serum, 50U of penicillin and 50 μg of streptomycin per ml (Invitrogen, Carlsbad Calif.). The following HIV viruses were used for testing of antiviral potency of compounds: WT=HIVHXB2; recombinant HIVHXB2 virus from drug resistant patient isolates; HIVmutant10 (16 mutations); HIVmutant8 (14 mutations); HIVmutant9 (10 mutations).
(§4) The potency of test compound was determined as previously described (ref 1-3) with minor modifications. MT-4 cells (1.5×10^4/ml) were exposed to 200 50 % tissue culture infective doses (TCID50) of viruses in the presence of various concentrations of test compound in 96 well microtiter plates and incubated at 37° C. for 5 days. 3-(4,5-dimethylthiazol-2-yl)-2,5-diphenytetrazolium bromide (MTT) solution was added to a final concentration of 0.75 mg/ml, and plates were incubated 1 hour. After incubation cells were dissolved in isopropanol/Triton-X 100/HCl (1000:50:25) solution. Absorbance was monitored in a microplate reader (Spectramax, Molecular Devices) at 540 nm and 690 nm. Cytotoxicity of compounds was tested in a similar assay in the absence of virus.

Experiment [2] deals with HIVmutant8 (14 mutations). The experiment can be described thus: Antiviral assay in MT-4 cells (MTT), mutant 8 virus. Format: cell-based, HIV. The settings on record: Human immunodeficiency virus 1, MT4, 120 h, read-out: IC50 Mutant 8. On the procedure: as §3, §4
The subject of experiment [3] is HIVmutant9 (10 mutations). In words: Antiviral assay in MT-4 cells (MTT), mutant 9 virus. The settings on record: Human immunodeficiency virus 1, MT4, 120 h, read-out: IC50 Mutant 9. Format: cell-based, HIV. On the procedure: as §3, §4
Experiment [4] relates to HIVmutant10 (16 mutations). The experiment can be described thus: Antiviral assay in MT-4 cells (MTT), mutant 10 virus. Format: cell-based, HIV. Particulars: Human immunodeficiency virus 1, MT4, 120 h, read-out: IC50 Mutant 10. How it is done: as §3, §4

On to `CCNC(C)=C1C(=O)Nc2ccc(S(=O)(=O)N(CC(C)C)CC(O)C(Cc3ccccc3)NC(=O)OC3COC4OCCC34)cc21` (centres unmarked) [Compound 43, (1-Benzyl-3-{[3-(1-ethylamino-ethylidene)-2-oxo-2,3-dihydro-1H-indole-5-sulfonyl]-isobutyl-amino}-2-hydroxy-propyl)-carbamic acid hexahydro-furo[2,3-b]furan-3-yl ester], for which the Ki on wild type HIV PR was less than 0.1 nM; at mutant HIV PR (Mutant 8), less than 0.3 nM; on mutant HIV PR (Mutant 9), less than 0.1 nM; in experiment [1], less than 1 nM. Also, the IC50 in the experiment with WT=HIVHXB2 worked out at 7 nM; in experiment [2], 23 nM; in experiment [3], 9 nM; in experiment [4], 65 nM.
As for `CC(C)CN(CC(O)C(Cc1ccccc1)NC(=O)OC1COC2OCCC12)S(=O)(=O)c1ccc2c(c1)C(=CNC1CCC1)C(=O)N2` (centres unmarked) [Compound 114], the inhibitory constant (Ki) at wild type HIV PR is less than 0.1 nM; on mutant HIV PR (Mutant 8), less than 0.3 nM; on mutant HIV PR (Mutant 9) it was 0.15 nM; in experiment [1], 1.2 nM. The IC50 in the experiment with WT=HIVHXB2 was determined as 17 nM; in experiment [2] it was 30 nM; in experiment [3] it was 31 nM; in experiment [4], 115 nM.
In the case of `CC(C)CN(C[C@@H](O)[C@H](Cc1ccccc1)NC(=O)O[C@H]1CO[C@H]2OCC[C@H]21)S(=O)(=O)c1ccc2c(c1)/C(=C/N(C)C)C(=O)N2` [Compound 21, {1-Benzyl-3-[(3-dimethylaminomethylene-2-oxo-2,3-dihydro-1H-indole-5-sulfonyl)-isobutyl-amino]-2-hydroxy-propyl}-carbamic acid hexahydro-furo[2,3-b]furan-3-yl ester], the Ki at wild type HIV PR was less than 0.1 nM; at mutant HIV PR (Mutant 8), less than 0.3 nM; on mutant HIV PR (Mutant 9), less than 0.1 nM; in experiment [1], less than 1 nM. Also, the IC50 in the experiment with WT=HIVHXB2 turned out to be 93 nM; in experiment [2] it was 90 nM; in experiment [3], 65 nM; in experiment [4], 70 nM.
As to `CC(C)CN(CC(O)C(Cc1ccccc1)NC(=O)OC1COC2OCCC12)S(=O)(=O)c1ccc2c(c1)C(=CNCC1CC1)C(=O)N2` (centres unmarked) [Compound 101], the Ki was 0.11 nM on wild type HIV PR, less than 0.3 nM at mutant HIV PR (Mutant 8), 0.19 nM on mutant HIV PR (Mutant 9) and less than 1 nM in experiment [1]. For the same molecule, the concentration for half-maximal inhibition (IC50) in the experiment on WT=HIVHXB2 was determined as 20 nM; in experiment [2], 31 nM; in experiment [3], 22 nM; in experiment [4], 55 nM.
